Data as given in patent publication US6495550B2, “Pyridine-substituted benzanilides as potassium ion channel openers” (ICAgen, Inc., priority 1999, dated 2002).

First: O=C(Nc1ccc(Cl)nc1)c1ccc(Cl)c(Cl)c1 [Compound 2, 3,4-Dichloro-N-(6-chloro-pyridin-3-yl)-benzamide]
Second: O=C(Nc1ccc(Cl)nc1)c1cccc(Cl)c1 [Compound 5, 3-Chloro-N-(6-chloro-pyridin-3-yl)-benzamide]
The melting point of the first is higher: 188 to 189 °C for the first, 153 to 154 °C for the second.

First: O=C(Nc1ccc(Cl)nc1)c1cccc(C(F)(F)F)c1 [Compound 3, N-(6-Chloro-pyridin-3-yl)-3-trifluoromethyl-benzamide]
Second: O=C(Nc1ccc(Cl)nc1)c1cccc(F)c1 [Compound 9, N-(6-Chloro-pyridin-3-yl)-3-fluoro-benzamide]
The melting point of the first is lower: 139 to 140 °C for the first, 160 °C for the second.

First: O=C(Nc1ccc(Cl)nc1)c1ccc(-c2ccccc2)cc1 [Compound 6, Biphenyl-4-carboxylic acid (6-chloro-pyridin-3-yl)-amide]
Second: O=C(Nc1ccc(Cl)nc1)c1ccccc1 [Compound 25, N-(6-Chloro-pyridin-3-yl)-benzamide]
The melting point of the first is higher: 227 to 229 °C for the first, 163 to 164 °C for the second.

Compared with `O=C(Nc1ccc(Cl)nc1)c1ccc(Cl)nc1` [Compound 7, 6-Chloro-N-(6-chloro-pyridin-3-yl)-nicotinamide], `O=C(Nc1ccc(Cl)nc1)c1ccc(Cl)cc1` [Compound 14, N-(6-Chloro-pyridin-3-yl)-4-chloro-benzamide] is lower in melting point: 228 °C for the first, 197 to 199 °C for the second.

First: O=C(Nc1ccc(Cl)nc1)c1cccc(C(F)(F)F)c1 [Compound 10, N-(6-Chloro-pyridin-3-yl)-3-(trifluoromethyl)-benzamide]
Second: O=C(Nc1ccc(Cl)nc1)c1ccc(C(F)(F)F)c(F)c1 [Compound 12, N-(6-Chloro-pyridin-3-yl)-3-fluoro-4-trifluoromethyl-benzamide]
The melting point of the first is lower: 169 to 170 °C for the first, 182 °C for the second.

Compared with `O=C(Nc1ccc(F)nc1)c1cnc(F)c(F)c1` [Compound 15, 5,6-Difluoro-N-(6-fluoro-pyridin-3-yl)-nicotinamide], `Nc1ccc(C(=O)Nc2ccc(Cl)nc2)cc1F` [Compound 41, 4-Amino-N-(6-chloro-pyridin-3-yl)-3-fluoro-benzamide] is higher in melting point: 135 to 137 °C for the first, 193 °C for the second.

First: Cc1cc(C(=O)Nc2ccc(Cl)nc2)ccc1[N+](=O)[O-] [Compound 16, N-(6-Chloro-pyridin-3-yl)-3-methyl-4-nitro-benzamide]
Second: O=C(Nc1ccc(Cl)nc1)c1ccc([N+](=O)[O-])c(F)c1 [Compound 37, N-(6-Chloro-pyridin-3-yl)-3-fluoro-4-nitro-benzamide]
The melting point of the first is lower: 192 to 193 °C for the first, 205 °C for the second.

First: O=C(Nc1ccc(Cl)nc1)c1cc2cc(F)ccc2[nH]1 [Compound 17, 5-Fluoro-1 H-indole-2-carboxylic acid (6-chloro-pyridin-3-yl)-amide]
Second: O=C(Nc1ccc(Cl)nc1)c1cc2cc(Cl)ccc2[nH]1 [Compound 18, 5-Chloro-1 H-indole-2-carboxylic acid (6-chloro-pyridin-3-yl)-amide]
The melting point of the first is lower: 290 °C for the first, 296 °C for the second.

Compared with `O=C(Nc1ccc(Cl)nc1)c1cc2cc(Cl)ccc2o1` [Compound 19, 5-Chloro-benzofuran-2-carboxylic acid (6-chloro-pyridin-3-yl)-amide], `O=C(Nc1ccc(Cl)nc1)c1ccc(Cl)o1` [Compound 21, 5-Chloro-furan-2-carboxylic acid (6-chloro-pyridin-3-yl)-amide] is lower in melting point: 222 to 223 °C for the first, 143 to 144 °C for the second.

Compared with `O=C(Nc1ccc(Cl)nc1)c1ccc(Cl)s1` [Compound 20, 5-Chloro-thiophene-2-carboxylic acid (6-chloro-pyridin-3-yl)-amide], `O=C(Nc1ccc(Cl)nc1)c1ccc([N+](=O)[O-])cc1` [Compound 42, N-(6-Chloro-pyridin-3-yl)-4-nitro-benzamide] is lower in melting point: 215 to 216 °C for the first, 193 °C for the second.

Compared with `Cc1c(C(=O)Nc2ccc(Cl)nc2)[nH]c2ccccc12` [Compound 23, 3-Methyl-1 H-indole-2-carboxylic acid (6-chloro-pyridin-3-yl)-amide], `O=C(Nc1ccc(Cl)nc1)c1cc2ccccc2[nH]1` [Compound 26, 1H-Indole-2-carboxylic acid (6-chloro-pyridin-3-yl)-amide] is higher in melting point: 184 to 185 °C for the first, 260 to 263 °C for the second.

Compared with `CCc1ccc2[nH]c(C(=O)Nc3ccc(Cl)nc3)cc2c1` [Compound 24, 5-Ethyl-1 H-indole-2-carboxylic acid (6-chloro-pyridin-3-yl)-amide], `CN(C)c1ccc(C(=O)Nc2ccc(Cl)nc2)cc1F` [Compound 34, N-(6-Chloro-pyridin-3-yl)-4-dimethylamino-3-fluoro-benzamide] is lower in melting point: 270 °C for the first, 170 to 171 °C for the second.

First: O=C(Nc1ccc(Cl)nc1)c1ccc(N2CCOCC2)c(F)c1 [Compound 31, N-(6-Chloro-pyridin-3-yl)-3-fluoro-4-morpholin-4-yl-benzamide]
Second: O=C(Nc1ccc(Cl)nc1)c1ccc(NCc2ccccn2)c(F)c1 [Compound 33, N-(6-Chloro-pyridin-3-yl)-3-fluoro-4-[(pyridin-2-ylmethyl)-amino]-benzamide]
The melting point of the first is higher: 228 to 229 °C for the first, 210 to 211 °C for the second.

With `O=C(Nc1ccc(Cl)nc1)c1ccc(NC(=O)c2ccccn2)cc1` [Compound 35, Pyridine-2-carboxylic acid [4-(6-chloro-pyridin-3-ylcarbamoyl)-phenyl]-amide] the melting point was 258 to 260 °C.
